Assay results from ChEMBL document CHEMBL1201862, “PubChem BioAssay data set” (2004).
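48-hour exposure; five concentrations; linearly interpolated endpoints. GI50: concentration for 50% inhibition of growth.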 The source made the active and inactive calls. Cut-off read from the data, not from the text of the source: active = GI50 up to about 1.1 µM and inactive = higher.

Columns and labels:
Experiment in all cases: NCI-60 cell line screen, 48 h
[1] = system: KM12
[2] = system: SK-MEL-5
[3] = system: MOLT-4
[4] = system: K562
[5] = system: A549
[6] = system: NCI-H460
[7] = system: SN12C
[8] = system: SF-268
[9] = system: UO-31
[10] = system: COLO 205
[11] = system: SK-MEL-2
[12] = system: TK-10
[13] = system: SF-295
[14] = system: EKVX
[15] = system: M14
[16] = system: HCC 2998
[17] = system: HT-29

Measured: GI50

O=C1c2ccccc2C(=O)N1CCN(CCN1C(=O)c2ccccc2C1=O)Cc1ccccc1
inactive: [1] > 100 µM | [2] > 100 µM | [3] > 100 µM | [4] > 100 µM | [5] > 100 µM | [6] > 100 µM | [7] > 100 µM | [8] > 100 µM | [9] > 100 µM | [10] > 100 µM | [11] > 100 µM | [12] > 100 µM | [13] > 100 µM | [14] > 100 µM | [15] > 100 µM

CS(=O)(=O)CC1=Nc2nnc(CCCCCCCc3nnc4n3C(=O)C(CS(C)(=O)=O)=N4)n2C1=O
inactive: [1] > 100 µM | [2] > 100 µM | [3] > 100 µM | [4] > 100 µM | [5] > 100 µM | [6] > 100 µM | [7] > 100 µM | [8] > 100 µM | [9] > 100 µM | [10] > 100 µM | [12] > 100 µM | [16] > 100 µM | [13] > 100 µM | [14] > 100 µM | [15] > 100 µM | [17] > 100 µM

COc1ccc2ccccc2c1C1OC(=O)c2ccccc21 (stereo not given)
inactive: [1] 56.6 µM | [2] > 100 µM | [3] 44.2 µM | [4] 33 µM | [5] 96.2 µM | [7] > 100 µM | [8] > 100 µM | [9] 68.2 µM | [10] > 100 µM | [12] > 100 µM | [16] > 100 µM | [13] 56.2 µM | [14] > 100 µM | [15] > 100 µM | [17] > 100 µM

N/C=N/S(=O)(=O)c1ccc(NC(=O)COC(=O)c2cccc3c(=O)c4ccccc4[nH]c23)cc1
inactive: [1] > 100 µM | [2] > 100 µM | [3] > 100 µM | [4] > 100 µM | [5] > 100 µM | [6] > 100 µM | [7] > 100 µM | [9] > 100 µM | [10] > 100 µM | [12] > 100 µM | [13] > 100 µM | [14] > 100 µM | [15] 67.8 µM | [17] > 100 µM

O=C1Nc2ccc([N+](=O)[O-])cc2/C1=N/Nc1ccc([N+](=O)[O-])cc1
inactive: [1] 12.4 µM | [2] 12.2 µM | [3] 41.6 µM | [4] 26.9 µM | [5] 14.4 µM | [6] 12.8 µM | [8] 11.3 µM | [9] 26.5 µM | [10] 34.7 µM | [11] 30.1 µM | [12] 24.8 µM | [13] 11.8 µM | [14] 35.3 µM | [15] 15.8 µM | [17] 21.4 µM
